Assays:
Endothelin A receptor = target: T1, Endothelin A receptor (Rattus norvegicus, UniProt P26684); assay: Affinity for the Endothelin A receptor: displacement of 125I endothelin from rat heart (ventricles) membrane preparation; assay type: binding; details: rat heart (ventricles) membranes, 25° C. for 60 minutes, pH 7.4, read-out: Endothelin A receptor IC50 in nanomoles
T1 construct: A membrane preparation is prepared from the heart (ventricles) of a rat; from tissue; host or cells: rat heart ventricles, membrane preparation
T1 sequence (P26684 21-426): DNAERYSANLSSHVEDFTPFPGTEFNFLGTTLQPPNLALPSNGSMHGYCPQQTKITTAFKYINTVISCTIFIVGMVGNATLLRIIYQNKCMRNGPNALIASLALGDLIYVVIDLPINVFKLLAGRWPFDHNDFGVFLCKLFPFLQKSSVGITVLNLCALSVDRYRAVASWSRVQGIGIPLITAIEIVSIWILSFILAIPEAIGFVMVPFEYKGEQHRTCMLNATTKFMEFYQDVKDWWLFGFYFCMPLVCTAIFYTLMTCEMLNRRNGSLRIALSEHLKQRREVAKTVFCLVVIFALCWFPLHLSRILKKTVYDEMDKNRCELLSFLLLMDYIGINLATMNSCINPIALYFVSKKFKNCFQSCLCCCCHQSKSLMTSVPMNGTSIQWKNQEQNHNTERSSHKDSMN
Experimental: 1) Study of the Affinity for the Endothelin A Receptor
A membrane preparation is prepared from the heart (ventricles) of a rat. The tissue is ground up in a POLYTRON in a 50 mM Tris buffer pH=7.4.
After 30 minutes at 25° C. (W.B.) the homogenate is centrifuged at 30,000 g for 15 minutes (2 centrifugations with intermediate take-up in the Tris buffer pH. 7.4).
The pellets are suspended in an incubation buffer (25 mM Tris, 5 microg/ml pepstatin A, 3 microg/ml aprotinin, 0.1 mM PMSF, 3 mM EDTA, 1 mM EGTA pH 7.4).
(§1) 2 ml aliquoted fractions are distributed in hemolysis tubes and ^125 I endothelin (approximately 50,000 dpm/tube) and the product to be studied are added. (The product is first tested at 3×10^-5 M three times). When the tested product displaces more than 50% of radioactivity specifically bound to the receptor, it is tested again according to a range of 7 concentrations in order to determine the concentration which inhibits by 50% the radioactivity specifically bound to the receptor. In this way the 50% inhibitory concentration is determined.
(§2) The non-specific bond is determined by the addition of endothelin at 10^-6 M (three times). After incubation at 25° C. for 60 minutes, replacing in a water-bath at 0° C. for 5 minutes, filtration under reduced pressure and rinsing with Tris buffer pH 7.4, the radioactivity is counted in the presence of scintillating Triton. […]

Endothelin = assay: Antagonistic activity of endothelin in a demedullated rat (inhibition of increase in arterial pressure induced by endothelin); assay type: in vivo, Male Sprague-Dawley rats; details: product 10 mg/kg injected (pudendal vein) 10 minutes before endothelin
Experimental: 3) Test for Antagonistic Activity of Endothelin in a Demedullated Rat
Male Sprague-Dawley rats (250 to 350 g) are anaesthetized (sodium pentobarbital 60 mg/kg injected by intraperitoneal route). The animal is placed under assisted respiration and a bilateral section of the vagus nerves is carried out. The rat is then demedullated.
The average arterial pressure is recorded with a heparin catheter (PE50) introduced into the carotid of the animal and connected via a pressure sensor and an amplifier to a recorder (Gould pressure processor). A catheter is implanted in the pudendal vein in order to allow injection of the molecules to be studied. After a stabilization period (about 15 minutes), the product or the solvent is injected 10 minutes before a range of increasing doses of endothelin which are injected every 2 minutes (0.1-0.3-1-3-10 ug/kg).
The antagonistic activity of the products is estimated by the percentage inhibition of the increase in pressure induced by endothelin at doses of 3 and 10 ug/kg.

Endothelin B receptor = target: T2, Endothelin B receptor (Rattus norvegicus, UniProt P21451); assay: Affinity for the Endothelin B receptor: displacement of 125I endothelin from rat cortex plus cerebellum membrane preparation; assay type: binding; details: rat rear cortex plus cerebellum membranes, 25° C. for 60 minutes, pH 7.4, read-out: Endothelin B receptor IC50 in nanomoles
T2 construct: A membrane preparation is prepared from the rear cortex plus the cerebellum of a rat; from tissue; host or cells: rat rear cortex plus cerebellum, membrane preparation
T2 sequence (P21451 27-442): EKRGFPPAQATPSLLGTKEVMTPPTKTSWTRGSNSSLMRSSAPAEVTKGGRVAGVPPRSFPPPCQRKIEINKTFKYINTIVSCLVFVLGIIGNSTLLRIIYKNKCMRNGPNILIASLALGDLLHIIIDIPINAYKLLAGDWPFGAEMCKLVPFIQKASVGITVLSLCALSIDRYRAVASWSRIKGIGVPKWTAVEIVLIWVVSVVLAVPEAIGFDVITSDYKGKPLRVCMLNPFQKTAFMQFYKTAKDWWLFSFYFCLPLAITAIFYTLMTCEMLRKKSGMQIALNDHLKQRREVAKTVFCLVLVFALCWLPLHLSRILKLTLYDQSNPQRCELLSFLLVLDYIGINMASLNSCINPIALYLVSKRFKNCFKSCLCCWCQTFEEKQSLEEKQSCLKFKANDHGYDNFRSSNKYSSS
Experimental: 2) Study of the Affinity for the Endothelin B Receptor
A membrane preparation is prepared from the rear cortex plus the cerebellum of a rat. The tissue is ground up in a POLYTRON in a 50 mM Tris buffer pH=7.4.
After 30 minutes at 250C (W.B.) the homogenate is centrifuged at 30,000 g for 15 minutes (2 centrifugations with intermediate take-up in the Tris buffer pH. 7.4).
The pellets are suspended in an incubation buffer (25 mM Tris, 5 microg/ml pepstatin A, 3 microg/ml aprotinin, 0.1 mM PMSF, 3mM EDTA, 1 mM EGTA pH 7.4).
as §1, with “tubes and 125I endothelin (approximately” for “tubes and ^125 I endothelin (approximately”, “50% of the radioactivity specifically” for “50% of radioactivity specifically”
as §2

IC50 (Endothelin A receptor)	IC50 (Endothelin B receptor)	SMILES	% inhibition of vasoconstriction Et1 3 μg/kg (Endothelin)	% inhibition of vasoconstriction Et1 10 μg/kg (Endothelin)
2.5 nM	88.5 nM	CCCc1nc(Sc2ccc(OCC(=O)O)cc2)c(C(=O)O)n1Cc1cc2c(cc1Cl)OCO2 [Example 1, 4-((4-(carboxymethoxy)phenyl)thio)-1-((6-chloro-1,3-benzodioxol5-yl)methyl)2-propyl1H-imidazole5-carboxylic acid]	-52%	-50%
2.5 nM	78.4 nM	CC(C)c1nc(Sc2ccc(CCC(=O)O)cc2)c(C(=O)O)n1Cc1cc2c(cc1Cl)OCO2 [Example 3, 4-((4-(2-carboxyethyl)phenyl)thio)-1-((6-chloro-1,3-benzodioxol-5-yl)methyl)-2-(1-methylethyl)-1H-imidazole-5-carboxylic acid]	+7%	-31%

— patent publication US5986103A, “2-alkyl-1H-imidazole-5-carboxylic acids” (Hoechst Marion Roussel, priority 1995, dated 1999)
